{"source": "patent US7668586B2", "about": "“In vivo multiphoton diagnostic detection and imaging of a neurodegenerative disease” (Cornell Research Foundation, Inc., priority 2000, dated 2010)", "key": {"pial arteriole": {"tested_on": "pial arteriole", "experiment": "Pial vessel reactivity, closed cranial window, vessel diameter measurement", "details": "14-month-old Tg+ (four out of five, outlier excluded); ACh 10 and 25 μM, SNP 0.5 μM superfused", "excerpt": "Anesthesia was induced with 2.5% halothane and maintained in 1.0% halothane in 67% N2O and 33% O2. Mice were intubated transorally, placed in a stereotaxic frame and ventilated artificially (SAR-830/P, CWE, Ardmore, Pa.). End-tidal CO2 was continuously monitored by a microcapnometer (Columbus Instruments, Columbus, Ohio). The femoral artery and vein were cannulated with a polyethylene catheter (PE-10, Intramedic, Becton Dickinson) for continuous arterial blood pressure and heart rate monitoring and for drug infusion. Alpha-chloralose (80 mg/kg i.v.) was injected and halothane was withdrawn gradually for deepening of anesthesia. […] Arterial blood gas and pH were analyzed before drug superfusion. […]\nPial vessels were visualized with a video microscope system comprised of an intravital microscope (Leitz, Germany), CCD video camera (model 1300, Cohu Inc, San Diego, U.S.A.), a camera controller (C2400, Hamamatsu Photonics, Hamamatsu, Japan), video monitor (Sony, Japan), and a video recorder (Panasonic, Japan). The images were continuously recorded on videotape. The diameter of a single pial arteriole (20-30 μm) was measured per experiment by a video width analyzer (C3161, Hamamatsu Photonics) and recorded using the MacLab data acquisition and analysis system. […]"}, "amyloid plaques": {"molecular_target": "amyloid plaques (Homo sapiens, UniProt P05067)", "sequence (P05067 672-711 limits assumed)": "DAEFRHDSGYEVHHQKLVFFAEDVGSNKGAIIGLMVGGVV", "experiment": "In vivo multiphoton imaging of thioflavine S-positive amyloid", "design": "species or system Tg2576 mouse", "details": "dilute solution applied to brain, 750 nm 2-photon excitation"}, "[1]": {"experiment": "Fluorescent angiography after tail vein injection", "details": "injected into tail vein, at least 20 minutes prior to imaging", "description": "The tail of the animal was warmed on a heating pad to dilate the blood vessels, and approximately 0.05 ml fluorescein (25 mg/ml) in sterile PBS was injected into a tail vein of the mouse at least 20 minutes prior to imaging."}}, "data": [{"molecule": "CC(=O)OCC[N+](C)(C)C", "note": "[ACh, Acetylcholine]", "values": [{"measurement": "vessel dilation relative to control (non-transgenic) animals", "setting": "pial arteriole", "result": "about 25%"}]}, {"molecule": "Thioflavine S", "values": [{"measurement": "depth to the surface of the cortex at which plaques were visualized", "setting": "amyloid plaques", "result": "up to 150 μm"}]}, {"molecule": "O=C1OC2(c3ccc(O)cc3Oc3cc(O)ccc32)c2ccccc21", "note": "[fluorescein]", "values": [{"measurement": "crossing of the blood-brain barrier", "setting": "[1]", "result": "did not cross the blood-brain barrier"}]}]}
